Key:
Assay in all cases: Glasshouse herbicide test, pre- and post-emergence, percentage damage
Format in all cases: in vivo
[1] = test system: Alopecurus myosuroides (ALOMY); settings: 250 g/h, evaluated after 13 days, percentage damage on five point scale; for ALOMY POST: post-emergence; for ALOMY PRE: pre-emergence
Description: (§1) Seeds of a variety of test species are sown in standard soil in pots (Lolium perenne (LOLPE), Setaria faberi (SETFA), Alopecurus myosuroides (ALOMY), Echinochloa crus-galli (ECHCG), Avena fatua (AVEFA)). After cultivation for one day (pre-emergence) or after 8 days cultivation (post-emergence) under controlled conditions in a glasshouse (at 24/16° C., day/night; 14 hours light; 65% humidity), the plants are sprayed with an aqueous spray solution derived from the formulation of the technical active ingredient in acetone/water (50:50) solution containing 0.5% Tween 20 (polyoxyethelyene sorbitan monolaurate, CAS RN 9005-64-5). Compounds are applied at […]. The test plants are then grown in a glasshouse under controlled conditions in a glasshouse (at 24/16° C., day/night; 14 hours light; 65% humidity) and watered twice daily. After 13 days for pre and post-emergence, the test is evaluated for the percentage damage caused to the plant. The biological activities are shown in the following table on a five point scale (5=80-100%; 4=60-79%; 3=40-59%; 2=20-39%; 1=0-19%).

Avena fatua (AVEFA) = settings: 250 g/h, evaluated after 13 days, percentage damage on five point scale; for AVEFA POST: post-emergence; for AVEFA PRE: pre-emergence
Description: as §1

Lolium perenne (LOLPE) = settings: 250 g/h, evaluated after 13 days, percentage damage on five point scale; for LOLPE POST: post-emergence; for LOLPE PRE: pre-emergence
Description: as §1

[2] = test system: Echinochloa crus-galli (ECHCG); settings: 250 g/h, evaluated after 13 days, percentage damage on five point scale; for ECHCG POST: post-emergence; for ECHCG PRE: pre-emergence
Description: as §1

Setaria faberi (SETFA) = settings: 250 g/h, evaluated after 13 days, percentage damage on five point scale; for SETFA POST: post-emergence; for SETFA PRE: pre-emergence
Description: as §1

Row | Structure (SMILES) | ALOMY POST [1] | ALOMY PRE [1] | AVEFA POST (Avena fatua (AVEFA)) | AVEFA PRE (Avena fatua (AVEFA)) | LOLPE POST (Lolium perenne (LOLPE)) | LOLPE PRE (Lolium perenne (LOLPE)) | ECHCG POST [2] | ECHCG PRE [2] | SETFA POST (Setaria faberi (SETFA)) | SETFA PRE (Setaria faberi (SETFA))
1 | CC(=O)N1CCC2(CC1)CC(=O)C(c1c(C)cc(-c3ccc(F)cc3)cc1C)C(=O)C2 [Compound A12] | 5 (5=80-100%) | 5 (5=80-100%) | 5 (5=80-100%) | 4 (4=60-79%) | 5 (5=80-100%) | 5 (5=80-100%) | 5 (5=80-100%) | 5 (5=80-100%) | 5 (5=80-100%) | 5 (5=80-100%)
2 | CC(=O)N1CCC2(CC1)CC(=O)C(c1c(C)cc(-c3ccc(C#N)cn3)cc1C)C(=O)C2 [Compound A14] | 5 (5=80-100%) | 5 (5=80-100%) | 5 (5=80-100%) | 5 (5=80-100%) | 5 (5=80-100%) | 5 (5=80-100%) | – | 5 (5=80-100%) | 5 (5=80-100%) | 5 (5=80-100%)
3 | COc1cc(-c2ncc(F)cn2)cc(OC)c1C1C(=O)CC2(CCN(C(C)=O)CC2)CC1=O [Compound A15] | 5 (5=80-100%) | 5 (5=80-100%) | 5 (5=80-100%) | 5 (5=80-100%) | 5 (5=80-100%) | 5 (5=80-100%) | 5 (5=80-100%) | 5 (5=80-100%) | 5 (5=80-100%) | 5 (5=80-100%)
4 | COc1cc(-c2ccc(C#N)cn2)cc(OC)c1C1C(=O)CC2(CCN(C(C)=O)CC2)CC1=O [Compound A16] | 5 (5=80-100%) | 1 (1=0-19%) | 5 (5=80-100%) | 4 (4=60-79%) | 4 (4=60-79%) | 3 (3=40-59%) | – | 5 (5=80-100%) | 5 (5=80-100%) | 4 (4=60-79%)
5 | COc1cc(-c2ncc(F)cn2)cc(C)c1C1C(=O)CC2(CCN(C(C)=O)CC2)CC1=O [Compound A17] | 5 (5=80-100%) | 5 (5=80-100%) | 5 (5=80-100%) | 5 (5=80-100%) | 5 (5=80-100%) | 5 (5=80-100%) | 5 (5=80-100%) | 5 (5=80-100%) | 5 (5=80-100%) | 5 (5=80-100%)
6 | COc1cc(-c2ccc(C#N)cn2)cc(C)c1C1C(=O)CC2(CCN(C(C)=O)CC2)CC1=O [Compound A18] | 5 (5=80-100%) | 4 (4=60-79%) | 5 (5=80-100%) | 5 (5=80-100%) | 5 (5=80-100%) | 5 (5=80-100%) | 5 (5=80-100%) | 5 (5=80-100%) | 5 (5=80-100%) | 5 (5=80-100%)
7 | CC(=O)N1CCC2(CC1)CC(=O)C(c1c(C)cc(-n3cc(Cl)cn3)cc1C)C(=O)C2 [Compound A19] | 5 (5=80-100%) | 2 (2=20-39%) | 5 (5=80-100%) | 5 (5=80-100%) | 5 (5=80-100%) | 4 (4=60-79%) | 4 (4=60-79%) | 1 (1=0-19%) | 5 (5=80-100%) | 3 (3=40-59%)
8 | COc1cc(-c2ccc(F)cc2)cc(OC)c1C1C(=O)CC2(CCN(C(C)=O)CC2)CC1=O [Compound A20] | 5 (5=80-100%) | 5 (5=80-100%) | 5 (5=80-100%) | 5 (5=80-100%) | 5 (5=80-100%) | 5 (5=80-100%) | 5 (5=80-100%) | 5 (5=80-100%) | 5 (5=80-100%) | 5 (5=80-100%)
9 | COc1cc(-c2ccc(F)cc2)cc(C)c1C1C(=O)CC2(CCN(C(C)=O)CC2)CC1=O [Compound A21] | 5 (5=80-100%) | 5 (5=80-100%) | 5 (5=80-100%) | 5 (5=80-100%) | 5 (5=80-100%) | 5 (5=80-100%) | 5 (5=80-100%) | 5 (5=80-100%) | 5 (5=80-100%) | 5 (5=80-100%)
10 | CCS(=O)(=O)N1CCC2(CC1)CC(=O)C(c1c(C)cc(-c3ccc(C#N)cn3)cc1C)C(=O)C2 [Compound A22] | 5 (5=80-100%) | 5 (5=80-100%) | 5 (5=80-100%) | 5 (5=80-100%) | 5 (5=80-100%) | 5 (5=80-100%) | – | 5 (5=80-100%) | 5 (5=80-100%) | 5 (5=80-100%)
11 | Cc1cc(-c2ccc(C#N)cn2)cc(C)c1C1C(=O)CC2(CCN(C(=O)c3ccccc3)CC2)CC1=O [Compound A23] | 5 (5=80-100%) | 5 (5=80-100%) | 5 (5=80-100%) | 5 (5=80-100%) | 5 (5=80-100%) | 5 (5=80-100%) | 5 (5=80-100%) | 5 (5=80-100%) | 5 (5=80-100%) | 5 (5=80-100%)
12 | Cc1cc(-c2ccc(C#N)cn2)cc(C)c1C1C(=O)CC2(CCN(C(=O)c3ccccn3)CC2)CC1=O [Compound A24] | 5 (5=80-100%) | 5 (5=80-100%) | 5 (5=80-100%) | 5 (5=80-100%) | 5 (5=80-100%) | 5 (5=80-100%) | 5 (5=80-100%) | 5 (5=80-100%) | 5 (5=80-100%) | 5 (5=80-100%)
13 | COCC(=O)N1CCC2(CC1)CC(=O)C(c1c(C)cc(-c3ccc(C#N)cn3)cc1C)C(=O)C2 [Compound A25] | 5 (5=80-100%) | 5 (5=80-100%) | 5 (5=80-100%) | 5 (5=80-100%) | 5 (5=80-100%) | 5 (5=80-100%) | 5 (5=80-100%) | 5 (5=80-100%) | 5 (5=80-100%) | 5 (5=80-100%)
14 | Cc1cc(-c2ccc(C#N)cn2)cc(C)c1C1C(=O)CC2(CCN(C(=O)NC(C)(C)C)CC2)CC1=O [Compound A26] | 5 (5=80-100%) | 5 (5=80-100%) | 2 (2=20-39%) | 4 (4=60-79%) | 5 (5=80-100%) | 5 (5=80-100%) | – | 5 (5=80-100%) | 5 (5=80-100%) | 5 (5=80-100%)
15 | Cc1cc(-c2ccc(C#N)cn2)cc(C)c1C1C(=O)CC2(CCN(C(=O)NC(=O)C(C)(C)C)CC2)CC1=O [Compound A27] | 5 (5=80-100%) | 4 (4=60-79%) | 1 (1=0-19%) | 2 (2=20-39%) | 5 (5=80-100%) | 4 (4=60-79%) | – | 5 (5=80-100%) | 5 (5=80-100%) | 5 (5=80-100%)

Source: patent publication US11980188B2, “Spiro cyclohexanedione derivates as herbicides” (SYNGENTA PARTICIPATIONS AG, priority 2018, dated 2024)
